Results taken from US10538532B2, “Hepatitis B antiviral agents” (ENANTA PHARMACEUTICALS, INC., priority 2016, dated 2020).
Where two headings read alike, the source gives them in different places.

Tested on: HBV
Experiment: HepAD38 antiviral assay: reduction of viral product accumulation (virion DNA by qPCR, HBsAg or HBeAg by ELISA)
Type: cell-based, hepatitis B virus
Settings: HepAD38 cells, five days after compound addition, concentration reducing viral product accumulation by 50% relative to no drug controls, read-out: HepAD38 EC50
Experimental: Methods: HepAD38 cells are maintained as previously reported (Ladner et al, Antimicrob. Agents Chemother. 1997, […], 1715). Briefly, cells are passaged upon attaining confluency in DMEM/F12 media in the presence of 10% FBS, Penn/Strep, 250 μg/mL G418, and 1 ug/ml tetracycline. Novel compounds are screened by first washing cells three times with PBS to remove tetracycline, and plating in 96 well plates at 35,000 cells/well. Compounds dissolved in DMSO are then diluted 1:200 into wells containing cells. Five days after compound addition, material is harvested for analysis. For an extended 8 day analysis, cells are plated and treated as described above, but media and compound are refreshed on d2 and d5 post initial treatment.
On harvest day, virion DNA is obtained by lysing with Sidestep Lysis and Stabilization Buffer and then quantified via quantitative real time PCR. Commercially available ELISA kits are used to quantitate the viral proteins HBsAg (Alpco) or HbeAg (US Biological) by following the manufacturer's recommended protocol after diluting samples to match the linear range of their respective assays. Irrespective of readout, compound concentrations that reduce viral product accumulation in the cell lysates or supernatants by 50% relative to no drug controls (EC50) are reported; EC50 ranges are as follows: A<0.1 μM; B 0.1-0.4 μM; C>0.4 μM.

[1] = Hepatitis B virus, HePAD38, 120 h

SMILES	EC50 [1] [nM]	EC50 [nM]
O=C(Nc1cc(F)c(F)c(F)c1)c1ccc(Cl)c(S(=O)(=O)C2CC[C@@H](O)[C@@H](O)CC2)c1 (stereo partly shown) [Example 83]	100 to 400	
O=C(Nc1cc(F)c(F)c(F)c1)c1ccc(Cl)c(S(=O)(=O)C2C[C@@H](O)[C@@H](O)C2)c1 (stereo partly shown) [Example 85]	100 to 400	
O=C(Nc1cc(F)c(F)c(F)c1)c1ccc(Cl)c(S(=O)(=O)C2CC3O[C@H]3C2)c1 (stereo partly shown) [Example 86]		> 400
O=C(Nc1cc(F)c(F)c(F)c1)c1ccc(Cl)c(S(=O)(=O)C2CC3O[C@H]3C2)c1 (stereo partly shown) [Example 87]		100 to 400
O=C(Nc1cc(F)c(F)c(F)c1)c1ccc(Cl)c(S(=O)(=O)C2(CCCO)CCCCC2)c1 [Example 88]	> 400	
O=C(Nc1cc(F)c(F)c(F)c1)c1ccc(Cl)c(S(=O)(=O)C2(CCO)CCCCC2)c1 [Example 89]	100 to 400	
CC1(C)O[C@@H]2[C@@H](CSc3cc(C(=O)Nc4cc(F)c(F)c(F)c4)ccc3Cl)OC(=O)[C@]2(C)O1 [Example 90]	> 400	
CCOC(=O)C(F)(F)Sc1cc(C(=O)Nc2cc(F)c(F)c(F)c2)ccc1Cl [Example 91]	> 400	
CCOC(=O)C(C)(C)S(=O)(=O)c1cc(C(=O)Nc2cc(F)c(F)c(F)c2)ccc1Cl [Example 92]	> 400	
CCOC(=O)C(F)(F)S(=O)(=O)c1cc(C(=O)Nc2cc(F)c(F)c(F)c2)ccc1Cl [Example 93]	> 400	
CCOC(=O)C(C)S(=O)(=O)c1cc(C(=O)Nc2cc(F)c(F)c(F)c2)ccc1Cl (stereo not shown) [Example 94]	> 400	
O=C(Nc1cc(F)c(F)c(F)c1)c1ccc(Cl)c(S(=O)(=O)C2CCN(c3ccccn3)CC2)c1 [Example 95]	> 400	
CN1CCC(S(=O)(=O)c2cc(C(=O)Nc3cc(F)c(F)c(F)c3)ccc2Cl)CC1 [Example 96]	> 400	
C[C@]1(O)C(=O)O[C@H](CSc2cc(C(=O)Nc3cc(F)c(F)c(F)c3)ccc2Cl)[C@H]1O [Example 97]	> 400	
CC1(C)O[C@@H]2[C@@H](CS(=O)(=O)c3cc(C(=O)Nc4cc(F)c(F)c(F)c4)ccc3Cl)OC(=O)[C@]2(C)O1 [Example 98]	> 400	
C[C@]1(O)C(=O)O[C@H](CS(=O)(=O)c2cc(C(=O)Nc3cc(F)c(F)c(F)c3)ccc2Cl)[C@H]1O [Example 99]	> 400	
CC1(C)O[C@@H]2[C@@H](CS(=O)(=O)c3cc(C(=O)Nc4cc(F)c(F)c(F)c4)ccc3Cl)OC(=O)[C@@H]2O1 [Example 100]	> 400	
O=C(Nc1cc(F)c(F)c(F)c1)c1ccc(Cl)c(S(=O)(=O)C[C@H]2OC(=O)[C@H](O)[C@@H]2O)c1 [Example 101]	> 400	
O=C(Nc1cc(F)c(F)c(F)c1)c1ccc(Cl)c(S(=O)(=O)C[C@@H]2C[C@@H](O)[C@@H](O)C2)c1 [Example 102]	100 to 400	
CCOC(=O)C(Cc1ccncc1)S(=O)(=O)c1cc(C(=O)Nc2cc(F)c(F)c(F)c2)ccc1Cl (stereo not shown) [Example 103]	> 400	
C=C1CCC(S(=O)(=O)c2cc(C(=O)Nc3cc(F)c(F)c(F)c3)ccc2Cl)CC1 [Example 104]	100 to 400	

SMILES	EC50 [1] [nM]	EC50 [nM]
O=C(Nc1cc(F)c(F)c(F)c1)c1ccc(Cl)c(S(=O)(=O)C[C@H]2C[C@@H](O)C2)c1 [Example 105]	100 to 400	
O=C(Nc1cc(F)c(F)c(F)c1)c1ccc(Cl)c(S(=O)(=O)[C@H]2C3CCC2C[C@H](CO)C3)c1 [Example 106]	< 100	
CC1(C)O[C@H]2[C@H](CO[C@@H]2CS(=O)(=O)c2cc(C(=O)Nc3cc(F)c(F)c(F)c3)ccc2Cl)O1 [Example 107]	> 400	
O=C(Nc1cc(F)c(F)c(F)c1)c1ccc(Cl)c(S(=O)(=O)C[C@H]2OC[C@H](O)[C@@H]2O)c1 [Example 108]	> 400	
O=C(Nc1cc(F)c(F)c(F)c1)c1ccc(Cl)c(S(=O)(=O)[C@H]2CC[C@](O)(CO)CC2)c1 [Example 109]	100 to 400	
O=C(Nc1cc(F)c(F)c(F)c1)c1ccc(Cl)c(S(=O)(=O)[C@H]2CC[C@@](O)(CO)CC2)c1 [Example 110]	100 to 400	
O=C(Nc1cc(F)c(F)c(F)c1)c1ccc(Cl)c(S(=O)(=O)C[C@H]2CC[C@H](O)CC2)c1 [Example 111]	< 100	
O=C(Nc1cc(F)c(F)c(F)c1)c1ccc(Cl)c(S(=O)(=O)C[C@H]2CC[C@@H](O)CC2)c1 [Example 112]	< 100	
O=C(Nc1cc(F)c(F)c(F)c1)c1ccc(Cl)c(S(=O)(=O)CC2CCOCC2)c1 [Example 113]	100 to 400	
O=C(Nc1cc(F)c(F)c(F)c1)c1ccc(Cl)c(S(=O)(=O)[C@H]2CC[C@@H](CO)CC2)c1 [Example 114]	100 to 400	
O=C(Nc1cc(F)c(F)c(F)c1)c1ccc(Cl)c(S(=O)(=O)[C@H]2CC[C@H](CO)CC2)c1 [Example 115]	100 to 400	
CCOC(=O)C(CC1CCOCC1)S(=O)(=O)c1cc(C(=O)Nc2cc(F)c(F)c(F)c2)ccc1Cl (stereo not shown) [Example 116]	> 400	
CC([C@H]1C[C@@H](O)C1)S(=O)(=O)c1cc(C(=O)Nc2cc(F)c(F)c(F)c2)ccc1Cl (stereo partly shown) [Example 117]	100 to 400	
CC(C)([C@H]1C[C@@H](O)C1)S(=O)(=O)c1cc(C(=O)Nc2cc(F)c(F)c(F)c2)ccc1Cl [Example 118]	100 to 400	
CC(C)(C)OC(=O)N1C2CCC1CC(S(=O)(=O)c1cc(C(=O)Nc3cc(F)c(F)c(F)c3)ccc1Cl)C2 (stereo not shown) [Example 119]		> 400
O=C(Nc1cc(F)c(F)c(F)c1)c1ccc(Cl)c(S(=O)(=O)[C@H]2C3CC[C@H]2CC(O)C(O)C3)c1 (stereo partly shown) [Example 120]	< 100	
CC(C)(c1ccncc1)S(=O)(=O)c1cc(C(=O)Nc2cc(F)c(F)c(F)c2)ccc1Cl [Example 121]	> 400	
O=C(Nc1cc(F)c(F)c(F)c1)c1ccc(Cl)c(S(=O)(=O)CCC2CCOCC2)c1 [Example 123]	100 to 400	
CC(C)(CO)S(=O)(=O)c1cc(C(=O)Nc2cc(F)c(F)c(F)c2)ccc1Cl [Example 124]	100 to 400	
O=C(Nc1cc(F)c(F)c(F)c1)c1ccc(Cl)c(S(=O)(=O)C2CCCC(O)CC2)c1 (stereo not shown) [Example 125]	100 to 400	
CC1(C)OC[C@@]2(CC3CC[C@@H](C2)[C@H]3S(=O)(=O)c2cc(C(=O)Nc3ccc(F)c(F)c3)ccc2Cl)O1 [Example 126]	100 to 400	

SMILES	EC50 [1] [nM]	EC50 [nM]
O=C(Nc1ccc(F)c(F)c1)c1ccc(Cl)c(S(=O)(=O)[C@H]2C3CC[C@H]2C[C@](O)(CO)C3)c1 [Example 127]	< 100	
CC1(C)OC[C@@]2(CC3CC[C@@H](C2)[C@H]3S(=O)(=O)c2cc(C(=O)Nc3cc(F)c(F)c(F)c3)ccc2Cl)O1 [Example 128]	100 to 400	
O=C[C@]1(O)CC2CC[C@@H](C1)[C@H]2S(=O)(=O)c1cc(C(=O)Nc2cc(F)c(F)c(F)c2)ccc1Cl [Example 129]	< 100	
O=C1CC2CC[C@@H](C1)[C@H]2S(=O)(=O)c1cc(C(=O)Nc2cc(F)c(F)c(F)c2)ccc1Cl [Example 130]	< 100	
O=C(Nc1cc(F)c(F)c(F)c1)c1ccc(Cl)c(S(=O)(=O)[C@H]2C3CC[C@H]2C[C@](O)(C(=O)O)C3)c1 [Example 131]	> 400	
CC(=O)OC[C@]1(O)CC2CC[C@@H](C1)[C@H]2S(=O)(=O)c1cc(C(=O)Nc2cc(F)c(F)c(F)c2)ccc1Cl [Example 132]	< 100	
O=C(Nc1cc(F)c(F)c(F)c1)c1ccc(Cl)c(S(=O)(=O)C2C3CCCC2CC(O)(CO)C3)c1 (stereo not shown) [Example 133]	100 to 400	
O=C(Nc1cc(F)c(F)c(F)c1)c1ccc(Cl)c(S[C@H]2C3CC[C@H]2C[C@](O)(CO)C3)c1 [Example 134]	100 to 400	
CCNC(=O)OC[C@]1(O)CC2CC[C@@H](C1)[C@H]2S(=O)(=O)c1cc(C(=O)Nc2cc(F)c(F)c(F)c2)ccc1Cl [Example 135]	100 to 400	
CC(O)[C@]1(O)CC2CC[C@@H](C1)[C@H]2S(=O)(=O)c1cc(C(=O)Nc2cc(F)c(F)c(F)c2)ccc1Cl (stereo partly shown) [Example 136]	< 100	
O=C(Nc1cc(F)c(F)c(F)c1)c1ccc(Cl)c(S(=O)(=O)[C@@H]2C3CC[C@H]2C[C@](O)(CO)C3)c1 [Example 137]	100 to 400	
O=C(Nc1cc(F)c(F)c(F)c1)c1ccc(Cl)c([S+]([O-])[C@H]2C3CC[C@H]2C[C@](O)(CO)C3)c1 (stereo partly shown) [Example 138]	> 400	
O=C(Nc1cc(F)c(F)c(F)c1)c1ccc(Cl)c(S(=O)(=O)[C@H]2C3CC[C@H]2C[C@]2(CO2)C3)c1 [Example 139]	< 100	
CC(=O)OCC1=CC2CCC(C1)[C@@H]2S(=O)(=O)c1cc(C(=O)Nc2cc(F)c(F)c(F)c2)ccc1Cl (stereo partly shown) [Example 140]	100 to 400	
O=C(Nc1cc(F)c(F)c(F)c1)c1ccc(Cl)c(S(=O)(=O)[C@@H]2C3C=C(CO)CC2CC3)c1 (stereo partly shown) [Example 141]	100 to 400	
CS(=O)(=O)OC[C@]1(O)CC2CC[C@@H](C1)[C@H]2S(=O)(=O)c1cc(C(=O)Nc2cc(F)c(F)c(F)c2)ccc1Cl [Example 142]	< 100	
CN(C)c1ccc(C(=O)Nc2cc(F)c(F)c(F)c2)cc1S(=O)(=O)[C@H]1C2CC[C@H]1C[C@]1(CO1)C2 [Example 143]	> 400	
CN(C)c1ccc(C(=O)Nc2cc(F)c(F)c(F)c2)cc1S(=O)(=O)[C@H]1C2CC[C@H]1C[C@](O)(COS(C)(=O)=O)C2 [Example 144]	> 400	
[N-]=[N+]=Nc1ccc(C(=O)Nc2cc(F)c(F)c(F)c2)cc1S(=O)(=O)[C@H]1C2CC[C@H]1C[C@]1(CO1)C2 [Example 145]	100 to 400	
